Assay results from patent publication EP0705601B1, “Anthraquinones containing solutions for parenteral administration” (LOMAPHARM Rudolf Lohmann GmbH KG Pharmazeutische Fabrik, priority 1994, dated 1996).
Read-outs that look alike come from different tables or passages of the source.

Legend:
[1] = man; D. Lorenz et al. 1985; cited from earlier work
[2] = water, Raumtemperatur, cited from earlier work
[3] = Increase of solubility with the solubilisers of the invention relative to purely aqueous phase; assay type: physicochemical; conditions: fold increase versus solubility in purely aqueous phase, with solubilisers I-III
Source text: Überraschenderweise wurde nun gefunden, daß die Löslichkeit der Anthrachinone durch den Einsatz von mindestens einem Lösungsvermittler ausgewählt aus • I. Polyethylenglykol-660-12-Hydroxystearat • II. Tetrahydrofurfurylalkoholpolyethylenglykolether • III. Wasserlösliche Beta- und Gamma-Cyclodextrinderivate, allein oder in Kombination mit anderen, physiologisch geeigneten, nichtwäßrigen Lösungsmitteln bzw. Lösungsvermittlern um mehr als das Hundertfache ihrer Löslichkeit in rein wäßriger Phase erhöht werden kann.

SMILES: O=C1c2ccccc2C(=O)c2c1ccc(O)c2O [Alizarin]
- Halbwertzeit [1]: ca. 12 Std.
- Löslichkeit in Wasser [2]: ca. 2 µmol/l
- Löslichkeit in Wasser ([2]; conversion of the µmol/l value): ≈ 0,48 mg/l
- Erhöhung der Löslichkeit [3]: mehr als das Tausendfache
